Where two headings read alike, the source gives them in different places.
Experiments:
[1] = test system: P. falciparum late stage (stages IV-V) gametocytes; set-up: method as in Almela et al 2016; conditions: ref Almela et al 2016, read-out: Pf GCT ATP IC50, cited from earlier work
[2] = test system: P. falciparum late stage (stages IV-V) gametocytes; assay: P. falciparum late stage gametocyte ATP depletion assay (Pf GC-ATP); conditions: 1: YES, 0: NO
HepG2 cells [3] = assay: HepG2 cytotoxicity assay
Summary of the method: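 Percent inhibition derived from fluorescent viability readout, normalised to DMSO (negative) and 50 μM doxorubicin (positive). Compound incubation lasted 48 h at 37°C, 5% CO2, with 2,500 HepG2 cells/well in MEM plus 10% FBS and 1% NEAA.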

HepG2 cells [4] = conditions: ref Almela et al 2016, cited from earlier work; for HepG2 cytoxicity (Pf GCT ATP screen): HepG2 value reported with Pf GCT ATP screen
[5] = test system: P. berghei ookinete development; conditions: primary screen at 1 μM
[6] = HepG2 cytotoxicity unified across screens, bounds (>) given as plain numbers
[7] = P. falciparum late stage gametocyte ATP assay
[8] = HepG2 data listed with Pf GCT ATP screen
[9] = P. falciparum late stage gametocyte ATP assay, TCAMS screen
[10] = >10-fold selectivity over cytotoxicity
[11] = HepG2 cytotoxicity unified across screens, >25 set to 25.00

| SMILES | IC50 ([1]; TCAMS library screen) [µM] | Is compound selective in assay? Pf GC-ATP active? [2] | Unified cytotox (HepG2 cells [3]; [6]) [µM] | HepG2 cytoxicity (Pf GCT ATP screen) (HepG2 cells [4]) [µM] | further results |
| --- | --- | --- | --- | --- | --- |
| Cl.N=c1n(Cc2ccc(Cl)cc2)c2ccccc2n1CC(O)c1ccc(Cl)c(Cl)c1 (stereo not drawn) [TCMDC-123813] | 0.36 | 1 (1: YES) | 6.50 | 6.5 |  |
| O=C(Nc1nc(-c2ccccn2)cc2ccccc12)c1cccc(Cl)c1 [TCMDC-123886] | 0.5 | 1 (1: YES) |  | >25 |  |
| COc1ccc(C[C@H](N)C(=O)N[C@H]2[C@@H](O)[C@H](n3cnc4c(N(C)C)ncnc43)O[C@@H]2CO)cc1.Cl [TCMDC-123927] | 0.65 | 0 (0: NO) | 2.69 | 2.69 |  |
| Cc1ccc(C)c(NC(=O)CC2C(=O)N(c3ccccc3)C(=S)N2Cc2ccco2)c1 (stereo not drawn) [TCMDC-124000] | 1.3 | 1 (1: YES) |  | >10 |  |
| Cl.N=c1n(CCN2CCCCC2)c2ccccc2n1CC(O)c1ccc(Cl)c(Cl)c1 (stereo not drawn) [TCMDC-124064] | 3.27 | 0 (0: NO) | 5.20 | 5.2 |  |
| CCCCCCCn1c(=N)n(CC(O)c2ccc(Cl)c(Cl)c2)c2ccccc21.Cl (stereo not drawn) [TCMDC-124065] | 2.02 | 0 (0: NO) | 6.00 | 6 |  |
| CCCCOc1ccc(C(=O)C(CCC(CNC(C)(C)C)C(=O)c2ccc(OCCCC)cc2)CNC(C)(C)C)cc1.Cl (stereo not drawn) [TCMDC-124120] | 0.3 | 1 (1: YES) | 3.10 | 3.1 |  |
| CCCCCOc1ccc(C(O)C(CCC(CN2CCCCCC2)C(O)c2ccc(OCCCCC)cc2)CN2CCCCCC2)cc1.Cl (stereo not drawn) [TCMDC-124174] | 1.2 | 0 (0: NO) | 6.80 | 6.8 |  |
| Oc1c(C(Nc2nc3ccccc3s2)c2ccc(OC(F)F)cc2)ccc2cccnc12 (stereo not drawn) [TCMDC-124379] | 0.44 | 1 (1: YES) | 24.10 | 24.1 |  |
| Cc1cc(Nc2ccncc2)n2nc(C)c(-c3ccc(Cl)cc3)c2n1 [TCMDC-124478] | 0.91 | 1 (1: YES) |  | >50 |  |
| O=C(O)C(=O)O.Oc1c(CN2CCC(Cc3ccccc3)CC2)cc(Cl)c2cccnc12 [TCMDC-124594] | 0.6 | 1 (1: YES) | 9.60 | 9.6 |  |
| Cc1ccc(-n2nc(-c3ccccc3)c3cc(C(=O)NCCN)sc32)cc1 [TCMDC-124776] | 1.11 | 0 (0: NO) | 7.83 | 7.83 |  |
| COc1ccccc1-c1cccc(-c2cccc(NC(=O)c3ccc([N+](=O)[O-])o3)c2)n1 [TCMDC-124800] | 1.66 | 0 (0: NO) | 11.47 | 11.47 |  |
| O=C(Nc1cccc(-c2cccc(-c3ccc(F)cc3)n2)c1)c1ccc([N+](=O)[O-])o1 [TCMDC-124807] |  | 0 (0: NO) |  |  | IC50 [1, 7]: 1.53 µM; Unified cytotox (HepG2 cells [3]; unified HepG2 value across the three screens): 6.94 µM; HepG2 cytoxicity (HepG2 cells [4]; [8]): 6.94 µM |
| CCc1nn2c(Nc3ccncc3)cc(C)nc2c1-c1ccccc1 [TCMDC-124917] |  | 1 (1: YES) |  |  | IC50 [1, 7]: 1.9 µM; HepG2 cytoxicity (HepG2 cells [4]; [8]): >25 µM |
| Cc1cc(Nc2ccncc2)n2nc(C)c(-c3ccccc3Cl)c2n1 [TCMDC-124918] |  | 1 (1: YES) |  |  | IC50 [1, 7]: 1.94 µM; HepG2 cytoxicity (HepG2 cells [4]; [8]): >25 µM |

| SMILES | IC50 ([1]; TCAMS library screen) [µM] | Is compound selective in assay? Pf GC-ATP active? [2] | Unified cytotox (HepG2 cells [3]; [6]) [µM] | HepG2 cytoxicity (Pf GCT ATP screen) (HepG2 cells [4]) [µM] | further results |
| --- | --- | --- | --- | --- | --- |
| Cc1nn(CC(C)C)c2sc(C(=O)N3CCN(S(=O)(=O)c4ccc(C#N)cc4)CC3)cc12 [TCMDC-125045] |  | 1 (1: YES) |  |  | IC50 [1, 7]: 2.09 µM; HepG2 cytoxicity (HepG2 cells [4]; [8]): >25 µM |
| COc1ccc(NC(=O)C2c3ccccc3C(=O)N(CC(C)C)C2c2cccs2)cc1OC (stereo not drawn) [TCMDC-125289] |  | 1 (1: YES) |  |  | IC50 [1, 7]: 0.43 µM; HepG2 cytoxicity (HepG2 cells [4]; [8]): >25 µM |
| COc1cccc(C(=O)NC(C=Cc2ccccc2)c2cc(Cl)c3cccnc3c2O)c1 (stereo not drawn) [TCMDC-125550] |  | 1 (1: YES) |  |  | IC50 [1, 7]: 0.59 µM; HepG2 cytoxicity (HepG2 cells [4]; [8]): >25 µM |
| CCN(CC)/C(=N\C(=N)NCCCCCCNC(=N)/N=C(\Nc1ccc(Cl)cc1)N(CC)CC)Nc1ccc(Cl)cc1 [TCMDC-131807] |  | 1 (1: YES) |  |  | IC50 [1, 7]: 0.37 µM; HepG2 cytoxicity (HepG2 cells [4]; [8]): >25 µM |
| CCN(CC)/C(=N/C(=N)Nc1ccc(Cl)cc1)NCCCCCCCCN/C(=N\C(=N)Nc1ccc(Cl)cc1)N(CC)CC [TCMDC-131812] |  | 1 (1: YES) |  |  | IC50 [1, 7]: 1.03 µM; HepG2 cytoxicity (HepG2 cells [4]; [8]): >25 µM |
| CCN(CC)/C(=N/C(=N)NCc1ccc(Cl)cc1)NCCCCCCN/C(=N\C(=N)NCc1ccc(Cl)cc1)N(CC)CC [TCMDC-131817] |  | 1 (1: YES) |  |  | IC50 [1, 7]: 0.79 µM; HepG2 cytoxicity (HepG2 cells [4]; [8]): >25 µM |
| CCOc1c(CCNCCCCNCCc2ccc3ccccc3c2OCC)ccc2ccccc12.CS(=O)(=O)O [TCMDC-137759] |  |  |  |  | IC50 [1, 9]: 0.17 µM; Is compound selective in assay? Pf GC-ATP active? [2, 10]: 1 (1: YES); HepG2 cytoxicity (HepG2 cells [4]; reported with the Pf GCT ATP screen): <1.56 µM |
| Cl.N=C(N)NN=Cc1c2ccccc2c(Cl)c2cc(Cl)ccc12 [TCMDC-137903] |  |  |  |  | IC50 [1, 9]: 2.35 µM; Is compound selective in assay? Pf GC-ATP active? [2, 10]: 0 (0: NO); Unified cytotox (HepG2 cells [3]; [11]): 7.50 µM; % inhibition, Replicate A [5]: 53.67%; % inhibition, Replicate B [5]: 40.83% |
| CN1CCC(N(Cc2ccc(-c3ccc(Cl)cc3)cc2)C(=O)Cn2c(CCc3cccc(F)c3F)cc(=O)c3ccccc32)CC1.O=C(O)C(O)C(O)C(=O)O [TCMDC-141357] |  |  |  |  | IC50 [1, 9]: 3.43 µM; Is compound selective in assay? Pf GC-ATP active? [2, 10]: 0 (0: NO); Unified cytotox (HepG2 cells [3]; [11]): 6.70 µM; % inhibition, Replicate A [5]: 22.22%; % inhibition, Replicate B [5]: 55.97% |
| CN(C)CCCNc1nccc(N(C)c2ccc(NC(=O)Nc3cc(C(F)(F)F)ccc3F)cc2)n1.O=C(O)C(F)(F)F [TCMDC-141633] |  |  |  |  | IC50 [1, 9]: 1 µM; Is compound selective in assay? Pf GC-ATP active? [2, 10]: 1 (1: YES); Unified cytotox (HepG2 cells [3]; [11]): 17.30 µM |
| O=C(Nc1cccc(Oc2ccccc2)c1)N[C@H]1CCN(Cc2ccc(OCCCN3CCCCC3)cc2)C1 [TCMDC-141785] |  |  |  |  | IC50 [1, 9]: 1.13 µM; Is compound selective in assay? Pf GC-ATP active? [2, 10]: 0 (0: NO); Unified cytotox (HepG2 cells [3]; [11]): 3.52 µM |
| Cc1ccc2nc(C)cc(N/N=C/c3ccc([N+](=O)[O-])cc3)c2c1 [TCMDC-142070] |  |  |  |  | IC50 [1, 9]: 9.41 µM; Is compound selective in assay? Pf GC-ATP active? [2, 10]: 0 (0: NO); Unified cytotox (HepG2 cells [3]; [11]): 0.19 µM |
| COc1ccc2c(=NN=Cc3ccc(OC)c4ccccc34)cc(C)[nH]c2c1 [TCMDC-142218] |  |  |  |  | IC50 [1, 9]: 0.77 µM; Is compound selective in assay? Pf GC-ATP active? [2, 10]: 1 (1: YES); Unified cytotox (HepG2 cells [3]; [11]): 7.86 µM |
| Nc1cc(C=Cc2ccc([N+](=O)[O-])o2)nc2ccccc12 [TCMDC-142295] |  |  |  |  | IC50 [1, 9]: 0.2 µM; Is compound selective in assay? Pf GC-ATP active? [2, 10]: 1 (1: YES); Unified cytotox (HepG2 cells [3]; [11]): 11.70 µM |
| Nc1cc(/C=C/c2ccc([N+](=O)[O-])s2)nc2ccccc12 [TCMDC-142296] |  |  |  |  | IC50 [1, 9]: 0.6 µM; Is compound selective in assay? Pf GC-ATP active? [2, 10]: 1 (1: YES); Unified cytotox (HepG2 cells [3]; [11]): 7.60 µM |

— paper PMC6753678, “Fueling Open Innovation for Malaria Transmission-Blocking Drugs: Hundreds of Molecules Targeting Early Parasite Mosquito Stages” (Frontiers in Microbiology, 2019)
